Laboratory results from PubChem BioAssay (NCI).
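Five concentrations, 48 hours, 96-well plates. GI50: concentration for 50% inhibition of growth. TGI is the concentration that stops growth completely.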

Tests used:
Assay in all cases: growth of human tumour cells (NCI), 48 h; in the data active = GI50 below about 0.43 µM; inactive = the rest
SK-MEL-5 melanoma = tested on: SK-MEL-5 melanoma
K-562 leukemia = tested on: K-562 leukemia
HOP-62 NSCLC = tested on: HOP-62 NSCLC
A549 NSCLC = tested on: A549 NSCLC
IGROV1 ovarian = tested on: IGROV1 ovarian
HT29 colon = tested on: HT29 colon
DU-145 prostate = tested on: DU-145 prostate
OVCAR-8 ovarian = tested on: OVCAR-8 ovarian
LOX IMVI melanoma = tested on: LOX IMVI melanoma
EKVX NSCLC = tested on: EKVX NSCLC
HS 578T breast = tested on: HS 578T breast
SF-539 CNS = tested on: SF-539 CNS
SK-MEL-2 melanoma = tested on: SK-MEL-2 melanoma
UO-31 renal = tested on: UO-31 renal
MCF7 breast = tested on: MCF7 breast
MALME-3M melanoma = tested on: MALME-3M melanoma
MDA-MB-435 = tested on: MDA-MB-435
MOLT-4 leukemia = tested on: MOLT-4 leukemia
RXF 393 renal = tested on: RXF 393 renal
UACC-62 melanoma = tested on: UACC-62 melanoma
CAKI-1 renal = tested on: CAKI-1 renal
SK-MEL-28 melanoma = tested on: SK-MEL-28 melanoma
A498 renal = tested on: A498 renal
BT-549 breast = tested on: BT-549 breast
NCI-H460 lung = tested on: NCI-H460 lung
OVCAR-4 ovarian = tested on: OVCAR-4 ovarian
SW-620 colon = tested on: SW-620 colon
M14 melanoma = tested on: M14 melanoma
SN12C renal = tested on: SN12C renal
SK-OV-3 ovarian = tested on: SK-OV-3 ovarian
NCI-H226 lung = tested on: NCI-H226 lung
HCT-116 colon = tested on: HCT-116 colon
CCRF-CEM leukemia = tested on: CCRF-CEM leukemia
UACC-257 melanoma = tested on: UACC-257 melanoma
SF-295 CNS = tested on: SF-295 CNS
KM12 colon = tested on: KM12 colon
ACHN renal = tested on: ACHN renal
HL-60(TB) leukemia = tested on: HL-60(TB) leukemia
HCT-15 colon = tested on: HCT-15 colon
PC-3 prostate = tested on: PC-3 prostate
RPMI-8226 leukemia = tested on: RPMI-8226 leukemia
SNB-75 CNS = tested on: SNB-75 CNS
U251 CNS = tested on: U251 CNS
786-0 renal = tested on: 786-0 renal
COLO 205 colon = tested on: COLO 205 colon
OVCAR-3 ovarian = tested on: OVCAR-3 ovarian
SF-268 CNS = tested on: SF-268 CNS
HCC-2998 colon = tested on: HCC-2998 colon
SNB-19 CNS = tested on: SNB-19 CNS
NCI-H522 lung = tested on: NCI-H522 lung
OVCAR-5 ovarian = tested on: OVCAR-5 ovarian
MDA-MB-231 breast = tested on: MDA-MB-231 breast
NCI/ADR-RES ovarian = tested on: NCI/ADR-RES ovarian
SR leukemia = tested on: SR leukemia
T-47D breast = tested on: T-47D breast
TK-10 renal = tested on: TK-10 renal
NCI-H23 lung = tested on: NCI-H23 lung
HOP-92 NSCLC = tested on: HOP-92 NSCLC

O=C(NC(=S)Nc1ccccn1)c1ccccc1
inactive: GI50 (SK-MEL-5 melanoma) > 100 µM | GI50 (K-562 leukemia) > 100 µM | GI50 (HOP-62 NSCLC) > 100 µM | GI50 (A549 NSCLC) > 100 µM | GI50 (IGROV1 ovarian) 61.7 µM | GI50 (HT29 colon) > 100 µM | GI50 (DU-145 prostate) > 100 µM | GI50 (OVCAR-8 ovarian) > 100 µM | GI50 (LOX IMVI melanoma) > 100 µM | GI50 (EKVX NSCLC) 85.2 µM | GI50 (HS 578T breast) 71.5 µM | GI50 (SF-539 CNS) > 100 µM | GI50 (SK-MEL-2 melanoma) > 100 µM | GI50 (UO-31 renal) 39.2 µM | GI50 (MCF7 breast) 1.97 µM | GI50 (MALME-3M melanoma) > 100 µM | GI50 (MDA-MB-435) > 100 µM | GI50 (MOLT-4 leukemia) > 100 µM | GI50 (RXF 393 renal) > 100 µM | GI50 (UACC-62 melanoma) > 100 µM | GI50 (CAKI-1 renal) > 100 µM | GI50 (SK-MEL-28 melanoma) > 100 µM | GI50 (A498 renal) 50.8 µM | GI50 (BT-549 breast) > 100 µM | GI50 (NCI-H460 lung) > 100 µM | GI50 (OVCAR-4 ovarian) 24.4 µM | GI50 (SW-620 colon) > 100 µM | GI50 (M14 melanoma) > 100 µM | GI50 (SN12C renal) > 100 µM | GI50 (SK-OV-3 ovarian) > 100 µM | GI50 (NCI-H226 lung) > 100 µM | GI50 (HCT-116 colon) > 100 µM | GI50 (CCRF-CEM leukemia) > 100 µM | GI50 (UACC-257 melanoma) > 100 µM | GI50 (SF-295 CNS) > 100 µM | GI50 (KM12 colon) > 100 µM | GI50 (ACHN renal) > 100 µM | GI50 (HL-60(TB) leukemia) > 100 µM | GI50 (HCT-15 colon) 70.7 µM | GI50 (PC-3 prostate) > 100 µM | GI50 (RPMI-8226 leukemia) > 100 µM | GI50 (SNB-75 CNS) > 100 µM | GI50 (U251 CNS) > 100 µM | GI50 (786-0 renal) > 100 µM | GI50 (COLO 205 colon) > 100 µM | GI50 (OVCAR-3 ovarian) 93.4 µM | GI50 (SF-268 CNS) > 100 µM | GI50 (HCC-2998 colon) > 100 µM | GI50 (SNB-19 CNS) > 100 µM | GI50 (NCI-H522 lung) > 100 µM | GI50 (OVCAR-5 ovarian) > 100 µM | GI50 (MDA-MB-231 breast) > 100 µM | GI50 (NCI/ADR-RES ovarian) > 100 µM | GI50 (SR leukemia) > 100 µM | GI50 (T-47D breast) 5.98 µM | GI50 (TK-10 renal) > 100 µM | GI50 (NCI-H23 lung) > 100 µM | GI50 (HOP-92 NSCLC) 83.9 µM
> 100 µM: TGI (SK-MEL-5 melanoma) | TGI (K-562 leukemia) | TGI (HOP-62 NSCLC) | TGI (A549 NSCLC) | TGI (IGROV1 ovarian) | TGI (HT29 colon) | TGI (DU-145 prostate) | TGI (OVCAR-8 ovarian) | TGI (LOX IMVI melanoma) | TGI (EKVX NSCLC) | TGI (HS 578T breast) | TGI (SF-539 CNS) | TGI (SK-MEL-2 melanoma) | TGI (UO-31 renal) | TGI (MCF7 breast) | TGI (MALME-3M melanoma) | TGI (MDA-MB-435) | TGI (MOLT-4 leukemia) | TGI (RXF 393 renal) | TGI (UACC-62 melanoma) | TGI (CAKI-1 renal) | TGI (SK-MEL-28 melanoma) | TGI (A498 renal) | TGI (BT-549 breast) | TGI (NCI-H460 lung) | TGI (OVCAR-4 ovarian) | TGI (SW-620 colon) | TGI (M14 melanoma) | TGI (SN12C renal) | TGI (SK-OV-3 ovarian) | TGI (NCI-H226 lung) | TGI (HCT-116 colon) | TGI (CCRF-CEM leukemia) | TGI (UACC-257 melanoma) | TGI (SF-295 CNS) | TGI (KM12 colon) | TGI (ACHN renal) | TGI (HL-60(TB) leukemia) | TGI (HCT-15 colon) | TGI (PC-3 prostate) | TGI (RPMI-8226 leukemia) | TGI (SNB-75 CNS) | TGI (U251 CNS) | TGI (786-0 renal) | TGI (COLO 205 colon) | TGI (OVCAR-3 ovarian) | TGI (SF-268 CNS) | TGI (HCC-2998 colon) | TGI (SNB-19 CNS) | TGI (NCI-H522 lung) | TGI (OVCAR-5 ovarian) | TGI (MDA-MB-231 breast) | TGI (NCI/ADR-RES ovarian) | TGI (SR leukemia) | TGI (T-47D breast) | TGI (TK-10 renal) | TGI (NCI-H23 lung) | TGI (HOP-92 NSCLC)
